The values that follow come from patent US20230219963A1, “PYRROLO[2,3-D]PYRIMIDINE DERIVATIVES” (Pfizer Inc., priority 2020, published 2023).

What all share (type): cell-based
In one experiment the test system is IL-21 induced pSTAT3. Kind of experiment: IL-21-induced pSTAT3 in human whole blood (lymphocytes). The conditions noted are these: Lymphocyte, JAK1/JAK3, read-out: IL-21 induced pSTAT3, cellular potency IC50. As to the method:
(§1) Human whole blood was collected from healthy donors via vein puncture into Vacutainer collection tubes containing sodium heparin in accordance with Pfizer protocols (Protocol No. GOHW RDP-01) approved by the Shulman Institutional Review Board. Blood was warmed to 37° C. priorto use. Human whole blood was aliquoted (90 μL/well) in 96-well, deep-well, V-bottom plates and treated with compounds (5 μL/well) at different concentrations up to 60 μM (0.2% DMSO final) at 37° C. for 60 minutes. This was followed by a challenge with IFNα (5000 U/mL), IFNγ (100 ng/mL), IL-6 (50 ng/mL), IL-10 (30 ng/mL), IL-12 (30 ng/mL), IL-15 (30 ng/mL), IL-21 (50 ng/mL), IL-23 (25 ng/mL), IL-27 (1000 ng/mL), EPO (2 U/mL), TSLP (50 ng/mL) or PBS and incubated for 15 minutes. Anti-cell surface antibodies were added 15 minutes prior to cytokine stimulation; anti-CD3-BV421 (0.5 μL/well) to IL-6-treated and TSLP-treated samples and anti-CD14-BV421 (0.5 μL/well) to IFNγ-treated samples. Samples were treated with warm 1×Lyse/Fix buffer (700 μL/well) to terminate activation and further incubated at 37° C. for 20 minutes to lyse red blood cells. Plates were centrifuged at 300×g for 5 minutes, supernatant was aspirated, and cells were washed with 800 μL/well of staining buffer (D-PBS containing 0.1% FBS and 0.01% sodium azide). Washed cell pellets were resuspended in 350 μL/well of prechilled 90% methanol and incubated at 4° C. for 30 minutes. After the removal of 90% methanol, cells were washed once with staining buffer. All samples were finally suspended in 150 μL/well of the desired anti-phospho-STAT antibodies at 1:150 dilution in staining buffer; anti-pSTAT1-AF647 in IFNγ treated samples; anti-pSTAT1-AF488 and anti-pSTAT3-AF647 in IL-6-treated samples, anti-pSTAT3-AF647 in IFNα, IL-10, IL-21, IL-23 and IL-27 treated samples, anti-pSTAT4-AF647 in IL-12 treated samples, anti-pSTAT5-AF-647 in EPO, IL-15 and TSLP-treated samples. Human primary keratinocytes were cultured in DermaLife™ medium with supplement kit to expand cell population. Cell passages 2 to 5 were used in the assays. Cells were harvested at ˜80% confluence, suspended in warm DermaLife™ medium, aliquoted (90 μL/well) in 96-well, deep-well, V-bottom plates, and incubated at 37° C. for 30 minutes. Cells were then treated with compounds (0.0003 to 20 μM) for 60 minutes and followed by stimulation with IL-4 (2 ng/mL) or IL-13 (20 ng/mL) at 37° C. for 15 minutes. […]
(§2) After overnight incubation at 4° C., anti-pSTAT stained samples were transferred into 96-well polypropylene U-bottom plates and flow cytometric analysis was performed on a LSR Fortessa™ equipped with a HTS plate loader. […] Background fluorescence was defined using unstimulated cells and a gate was placed at the foot of the peak to include ˜0.5% gated population. […]

A further experiment concerns IL-23 induced pSTAT3. Kind of experiment: IL-23-induced pSTAT3 in human whole blood (lymphocytes). The conditions noted are these: Lymphocyte, JAK2/TYK2, read-out: IL-23 induced pSTAT3, cellular potency IC50. As to the method:
as §1, §2

In a further experiment the test system is IFNg induced pSTATI. Put plainly: IFNγ-induced pSTAT1 in human whole blood (CD14+ cells). Conditions: JAK1/JAK2, read-out: IFNg induced pSTATI, cellular potency IC50. How it is done: as §1, §2
The next experiment relates to IL-10 induced pSTAT3. Put plainly: IL-10-induced pSTAT3 in human whole blood (lymphocytes). The conditions noted are these: Lymphocyte, JAK1/TYK2, read-out: IL-10 induced pSTAT3, cellular potency IC50. How it is done:
as §1, §2

In another experiment the test system is IL-15 induced pSTAT5. Kind of experiment: IL-15-induced pSTAT5 in human whole blood (lymphocytes). Conditions: Lymphocyte, JAK1/JAK3, read-out: IL-15 induced pSTAT5, cellular potency IC50. As to the method: as §1, §2
In the next experiment the test system is IL-27 induced pSTAT3. Put plainly: IL-27-induced pSTAT3 in human whole blood (lymphocytes). The conditions noted are these: Lymphocyte, JAK1/JAK2, read-out: IL-27 induced pSTAT3, cellular potency IC50. How it is done:
as §1, §2

The next experiment has as its system IL-6 induced pSTATI. Put plainly: IL-6-induced pSTAT1 in human whole blood (CD3+ cells). The conditions noted are these: JAK1/JAK2, read-out: IL-6 induced pSTATI, cellular potency IC50. As to the method:
as §1, §2

A word on the IC50: it is the concentration that inhibits the measured activity by half. Take `C[C@H](O)CS(=O)(=O)N[C@H]1C[C@@H](N(C)c2ncnc3[nH]ccc23)C1` (single isomer, unassigned) [IA (M2)]: the IC50 in the experiment on IL-21 induced pSTAT3 worked out at 487 nM; in the experiment on IL-23 induced pSTAT3, 6210 nM; in the experiment on IFNg induced pSTATI, 2160 nM; in the experiment with IL-10 induced pSTAT3, 233 nM; in the experiment on IL-15 induced pSTAT5 it was 353 nM; in the experiment on IL-27 induced pSTAT3, 234 nM. For the same molecule, in the experiment on IL-6 induced pSTATI, the half-maximal inhibitory concentration (IC50) came out at 136 nM.

In the case of `C[C@@H](O)CS(=O)(=O)N[C@H]1C[C@@H](N(C)c2ncnc3[nH]ccc23)C1` (single isomer, unassigned) [IC (M3)], the IC50 in the experiment on IL-21 induced pSTAT3 was found to be 1050 nM; with IL-23 induced pSTAT3, 13800 nM; with IFNg induced pSTATI it was 4250 nM; with IL-10 induced pSTAT3, 488 nM; in the experiment on IL-15 induced pSTAT5, 800 nM; with IL-27 induced pSTAT3 it was 572 nM. For the same molecule, in the experiment with IL-6 induced pSTATI, the IC50 was determined as 333 nM.

On to `CN(c1ncnc2[nH]ccc12)[C@H]1C[C@@H](NS(=O)(=O)CCCO)C1` [IB (M1), 3-Hydroxy-N-(cis-3-(methyl(7H-pyrrolo[2,3-d]pyrimidin-4-yl)amino)cyclobutyl)propane-1-sulfonamide], for which the IC50 with IL-21 induced pSTAT3 came to 844 nM; in the experiment with IL-23 induced pSTAT3 it was 26200 nM; in the experiment with IFNg induced pSTATI, 1950 nM; in the experiment on IL-10 induced pSTAT3, 675 nM; with IL-15 induced pSTAT5, 558 nM; with IL-27 induced pSTAT3, 382 nM. In the experiment with IL-6 induced pSTATI, the IC50 was 171 nM.
